Results published in US10028935B2, “Stabilized multi-functional antioxidant compounds and methods of use” (XPD Holdings, LLC, priority 2012, dated 2018).
Converted amounts (≈) assume the structure as drawn.

Key:
[1] = Solubility in physiologic buffer (PBS, pH 7.4) by nephelometry; type: physicochemical; conditions: aqueous buffer, thermodynamic from solid, phosphate buffered saline, top concentration 500 mg/mL, serial 1:2 dilutions
Method: (§1) The solubility of Compound 45 and carnosine in physiologic buffer (phosphate buffered saline, pH 7.4; PBS) were determined using a BMG Labtech NEPHELOstar nephelometer (Offenburg, Germany) with Galaxy analytical software, version 4.32R2. Stock solutions of each compound were prepared initially in dimethyl sulfoxide (DMSO); Compound 45 was soluble at a concentration of 50 mM in DMSO, while carnosine was not. Subsequently, dilution series of both compounds were prepared directly in PBS (pH 7.4) for evaluation of solubility using nephlometry, with a top concentration of 500 mg/mL for each compound and serial 1:2 dilutions. A positive control compound was included to qualitatively illustrate concentration-solubility relationships using heat maps. Compound 45 was soluble in physiologic buffer at a concentration of 500 mg/mL, while carnosine was soluble only at concentrations of 250 mg/mL.

[2] = Solubility of stock solutions in dimethyl sulfoxide (DMSO); type: physicochemical; conditions: organic solvent or mixture, stock solution in dimethyl sulfoxide
Method: as §1

[3] = Hydrolysis in human whole blood (disappearance of Compound 45, appearance of NACA and carnosine); type: in vitro ADME; conditions: 37° C.
Method: To determine hydrolysis of Compound 45 and appearance of NACA and carnosine in blood, samples of human whole blood from healthy donors anti-coagulated with sodium heparin were thermally equilibrated to, and maintained at 37° C. in a water bath. Compound 45 was then spiked from a single freshly prepared stock solution into blood aliquots to create separate samples of varying Compound 45 starting concentrations (135 μM, 13.5 μM, 10.9 μM [5 μg/mL], and 2.2 μM [1 μg/mL]). Immediately after spiking, tubes were mixed by very gently rocking tubes manually for 5 minutes to ensure homogeneity and remained in the 37° C. water bath until all time points were collected. […] Plasma samples were processed for quantitation of the disappearance (hydrolysis) of Compound 45 and the appearance of NACA or carnosine, as described below. […]
Samples in 96-well plates were analyzed on a Waters Acquity UPLC™ liquid chromatograph interfaced with a Thermo Scientific TSQ Vantage triple quadrupole mass spectrometer with electrospray ionization in the positive ion mode. […]
Compound 45, Carnosine and the NACA-thio-ether derivative product eluted at approximately 1.3 minutes. Compound 45 was detected by selected reaction monitoring of the mass-to-charge (m/z) 371 to 110 transition. Carnosine was detected by selected reaction monitoring of the m/z 227 to 110 transition. […]

[4] = Storage stability by reversed-phase HPLC quantitation of degradation products (impurities); type: physicochemical; conditions: storage for 1 or 2 months at 5° C., 25° C./60% RH and 40° C./75% RH; FIGS. 1-3
Method: The stability of Compound 45 and N-acetylcysteine amide (NACA) were determined using reversed-phase HPLC quantitation of the appearance of degradation products (impurities) after storage of the compounds for 1 or 2 months at 5° C., 25° C./60% relative humidity (RH), and 40° C./75% RH.
The chromatographic system used was an Agilent 1100 HPLC comprised of a degasser (model G1322A), pump (model G1311A), autosampler (model G1329A), column compartment (model G1316A), and a diode array detector (model G1315A). Agilent Chemstation software Rev. B.03.02 [341] was used to acquire and analyze all chromatographic data. […] Assay, identity, and purity of Compound 45 and NACA, and quantitation of impurities arising over time, was accomplished by a reversed-phase isocratic method using a Phenomenex Synergi Polar-RP (250×4.6 mm, […]) column at 15° C., 0.2% perchloric acid (PCA) in water and acetonitrile as mobile phase, UV detection at 210 nm, and a standard run time of 20 minutes. Standard solutions of Compound 45 and NACA were prepared in 0.2% perchloric acid to generate standard curves for quantitation of Compound 45 and NACA. Replicate samples of each analyte were collected at study initiation (baseline), after 1 month of storage under the various conditions and after 2 months of storage for quantitation of parent and impurities. […]

Row | solubility [1] [mg/mL] | solubility [2] [mM] | metabolism of thioester linkage in blood [3] | SMILES | extent of degradation as measured by the percent change (increase) from baseline in impurities [4]
1 | 250 (≈ 1110 mM) | < 50 |  | NCCC(=O)N[C@@H](Cc1cnc[nH]1)C(=O)O [carnosine, reference compound] | 
2 | ≥ 500 | ≥ 50 | rapidly metabolized in blood | CC(=O)N[C@@H](CSC(=O)[C@H](Cc1cnc[nH]1)NC(=O)CCN)C(N)=O [Compound 45, (S)-S((R)-2-acetamido-3-amino-3-oxopropyl) 2-(3-aminopropanamido)-3-(1H-imidazol-5-yl)propanethioate] | less than the increase in impurities for NACA
